Test results reported in patent publication US8815927B2, “Bivalent diazo bicyclic Smac mimetics and the uses thereof” (The Regents of the University of Michigan, priority 2009, dated 2014).

Legend:
[1] = target: XIAP Linker-BIR2-BIR3 Protein (Homo sapiens (Human), UniProt P98170); test: Fluorescence polarization-based binding assay, XIAP Linker-BIR2-BIR3; settings: 3 nM XIAP protein (residues 120-356), 1 nM Smac2-F
Description: An in vitro fluorescence polarization (FP) based binding assay was used to test the binding ability of the compounds of the present invention to XIAP linker-BIR2-BIR3 protein (Nikolovska-Coleska et al., Anal. Biochem. 374:87-98 (2008)).
For this assay a bivalent Smac peptido-mimetic labeled with a fluorescence tag (FAM), termed Smac2-F, was employed. […] The recombinant XIAP Linker-BIR2-BIR3 protein of human XIAP (residues 120-356) fused to His-tag was stable and soluble, and was used for the FP-based binding assay.
For the competitive binding experiments, a tested compound was incubated with 3 nM of XIAP protein (residues 120-356) and 1 nM of Smac2-F in the assay buffer (100 mM potassium phosphate, pH 7.5; 100 μg/ml bovine gamma globulin; 0.02% sodium azide) in black, round-bottom plates. For each experiment, the controls include XIAP and Smac2-F peptide (equivalent to 0% inhibition), and Smac-2F only (equal to 100% of inhibition). The polarization values are measured after 2 hours incubation, using the Ultra plate reader. The IC50 value, the inhibitor concentration at which 50% of bound tracer was displaced, is determined from the plot using nonlinear least-squares analysis. Curve fitting is performed using GraphPad Prism® software.

[2] = target: cIAP1 BIR3 Protein (Homo sapiens (Human), UniProt Q13490); test: Fluorescence polarization-based competitive binding assay, cIAP-1 BIR3; settings: 10 nM cIAP-1 BIR3 protein, 2 nM SM5F tracer
Experimental: (§1) An in vitro fluorescence polarization (FP) based binding assay was used to test the binding ability of the compounds of the present invention to certain IAP proteins (Nikolovska-Coleska et al., Anal. Biochem. 332:261-73 (2004)).
(§2) Human cIAP-1 BIR3-only (residues 253-363) and cIAP2 BIR3-only (residues 238-349) were cloned into pHis-TEV vector, produced and purified using the same method as for the XIAP BIR3 protein.
(§3) In competitive binding experiments, 10 nM of cIAP-1 BIR3 protein and 2 nM of SM5F tracer were used. […] In competitive binding experiments, 25 nM of cIAP-2 BIR3 protein and 2 nM of SM5F tracer were used.
(§4) For each competitive binding experiment, polarization values were measured after 2-3 hours incubation using an Ultra plate reader. The IC50 value, the inhibitor concentration at which 50% of bound tracer was displaced, was determined from the plot using nonlinear least-squares analysis. Curve fitting was performed using the PRISM software (GraphPad Software, Inc., San Diego, Calif.). Ki value for each compound was calculated based upon the IC50 value using a previously reported algorithm and its associated computer program (Nikolovska-Coleska et al., Anal. Biochem. 332:261-73 (2004)).

[3] = tested on: MDA-MB-231 human breast cancer cell line; test: Cancer cell growth inhibition, WST-8; type: cell-based; settings: MDA-MB-231, 96 h, 4 days
Experimental: (§5) The effect of the compounds of the present invention on the growth of various cancer cell lines was tested. Cells were seeded in 96-well flat bottom cell culture plates at a density of 3000 cells/well with a tested compound and incubated at 37° C. in an atmosphere of 95% air and 5% CO2 for 4 days. The rate of cell growth inhibition after treatment with different concentrations of the compound was determined using a WST-8 kit (2-(2-methoxy-4-nitrophenyl)-3-(4-nitrophenyl)-5-(2,4 disulfophenyl)-2H-tetrazolium monosodium salt; Dojindo Molecular Technologies, Inc., Gaithersburg, Md.). WST-8 was added at a final concentration of 10% to each well, and then the plates were incubated at 37° C. for 2-3 hrs. The absorbance of the samples was measured at 450 nm using a ULTRA Tecan Reader (Molecular Device). The concentration of the tested compound that inhibited cell growth by 50% (IC50) was calculated by comparing absorbance in untreated cells and the cells treated with the tested compound.

[4] = target: cIAP2 BIR3 Protein (Homo sapiens (Human), UniProt Q13489); test: Fluorescence polarization-based competitive binding assay, cIAP-2 BIR3; settings: 25 nM cIAP-2 BIR3 protein, 2 nM SM5F tracer
Experimental: as §1, §2, §3, §4

[5] = tested on: ovarian cancer SK-OV-3 cell line; test: Induction of cell death, trypan blue exclusion assay; type: cell-based, human; settings: SK-OV-3, 48 hours, FIG. 2
Experimental: (§6) The ability of SM-1258 and SM-1267 to induce cell death was tested in the breast cancer MDA-MB-231 (FIG. 1) and ovarian cancer SK-OV-3 (FIG. 2) cell lines. Cells were treated with SM-1258 and SM-1267 for 48 hours and cell viability was determined using the trypan blue exclusion assay.

[6] = tested on: breast cancer MDA-MB-231 cell line; test: as above; type: cell-based, human; settings: MDA-MB-231, 48 hours, FIG. 1
Experimental: as §6

[7] = tested on: SK-OV-3 ovarian cancer cell line; test: Cancer cell growth inhibition, WST-8; type: cell-based; settings: Homo sapiens, SK-OV-3, 96 h, 4 days
Experimental: as §5

[8] = target: XIAP BIR3 (Homo sapiens (Human), UniProt P98170); settings: cited from earlier work
XIAP BIR3, sequence (P98170 241-356): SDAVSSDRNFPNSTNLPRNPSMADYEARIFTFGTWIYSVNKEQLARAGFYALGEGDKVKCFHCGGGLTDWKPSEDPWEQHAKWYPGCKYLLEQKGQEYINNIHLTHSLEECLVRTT

XIAP Linker-BIR2-BIR3 Protein, sequence (P98170 120-356): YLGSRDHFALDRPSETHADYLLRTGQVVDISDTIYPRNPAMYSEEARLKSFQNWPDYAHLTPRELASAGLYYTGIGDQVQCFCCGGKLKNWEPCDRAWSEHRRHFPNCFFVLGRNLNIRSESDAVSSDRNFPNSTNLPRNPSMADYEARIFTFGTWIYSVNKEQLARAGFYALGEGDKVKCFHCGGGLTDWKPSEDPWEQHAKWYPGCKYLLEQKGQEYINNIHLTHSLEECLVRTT
cIAP2 BIR3 Protein, sequence (Q13489 238-349): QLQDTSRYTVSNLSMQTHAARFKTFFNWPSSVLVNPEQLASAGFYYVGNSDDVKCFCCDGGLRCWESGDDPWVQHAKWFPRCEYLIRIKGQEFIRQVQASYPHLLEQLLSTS
cIAP1 BIR3 Protein, sequence (Q13490 253-363): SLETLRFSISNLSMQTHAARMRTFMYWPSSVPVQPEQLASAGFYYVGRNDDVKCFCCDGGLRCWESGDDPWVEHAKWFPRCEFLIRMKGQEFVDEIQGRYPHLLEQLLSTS

CN[C@@H](C)C(=O)N[C@H]1CN(C(=O)CCCCC(=O)N2CC[C@H]3CC[C@@H](c4nc5cccc(-c6ccccc6)c5[nH]4)N3C(=O)[C@@H](NC(=O)[C@H](C)NC)C2)CC[C@H]2CC[C@@H](c3nc4c(-c5ccccc5)cccc4[nH]3)N2C1=O [SM-1265]
IC50 [1]: < 50 nM
IC50 [2]: < 10 nM
IC50 [3]: < 50 nM
IC50 [4]: < 10 nM

CN[C@@H](C)C(=O)N[C@H]1CN(C(=O)CCCCCCCCC(=O)N2CC[C@H]3CC[C@@H](c4nc5cccc(-c6ccccc6)c5[nH]4)N3C(=O)[C@@H](NC(=O)[C@H](C)NC)C2)CC[C@H]2CC[C@@H](c3nc4c(-c5ccccc5)cccc4[nH]3)N2C1=O [SM-1267]
IC50 [1]: < 10 nM
IC50 [2]: < 10 nM
induction of cell death [5]: induced cell death
induction of cell death [6]: induced cell death
IC50 [3]: < 10 nM
IC50 [4]: < 50 nM

CN[C@@H](C)C(=O)N[C@H]1CN(C(=O)CCCCCCC(=O)N2CC[C@H]3CC[C@@H](c4nc5cccc(-c6ccccc6)c5[nH]4)N3C(=O)[C@@H](NC(=O)[C@H](C)NC)C2)CC[C@H]2CC[C@@H](c3nc4c(-c5ccccc5)cccc4[nH]3)N2C1=O [SM-1266]
IC50 [1]: < 10 nM
IC50 [2]: < 10 nM
IC50 [3]: < 10 nM
IC50 [4]: < 20 nM

CN[C@@H](C)C(=O)N[C@H]1CN(C(=O)CCCCCCCCCCC(=O)N2CC[C@H]3CC[C@@H](c4nc5cccc(-c6ccccc6)c5[nH]4)N3C(=O)[C@@H](NC(=O)[C@H](C)NC)C2)CC[C@H]2CC[C@@H](c3nc4c(-c5ccccc5)cccc4[nH]3)N2C1=O [SM-1258]
IC50 [1]: < 10 nM
IC50 [2]: < 50 nM
IC50 [3]: < 10 nM
IC50 [7]: < 20 nM

CN[C@@H](C)C(=O)N[C@H]1CN(C(=O)CCCCOCCCCC(=O)N2CC[C@H]3CC[C@@H](c4nc5cccc(-c6ccccc6)c5[nH]4)N3C(=O)[C@@H](NC(=O)[C@H](C)NC)C2)CC[C@H]2CC[C@@H](c3nc4c(-c5ccccc5)cccc4[nH]3)N2C1=O [SM-1259]
IC50 [1]: < 10 nM
IC50 [2]: < 10 nM
IC50 [3]: < 10 nM
IC50 [4]: < 20 nM

B1: mature Smac protein: second mitochondria-derived activator of caspases, mature polypeptide (protein, UniProt Q9NR28 22-239, looked up)
Diablo IAP-binding …: LCVPVVANFKKRCFSELIRPWHKTVTIGFGVTLCAVPIAQKSEPHSLSSEALMRRAVSLVTDSTSTFLSQTTYALIEAITEYTKAVYTLTSLYRQYTSLLGKMNSEEEDEVWQVIIGARAEMTSKHQEYLKLETTWMTAVGLSEMAAEAAYQTGADQASITARNHIQLVKLQVEEVHQLSRKAETKLAEAQIEELRQKTQEEGEERAESEQEAYLRED
Kd [8]: 420 nM
